# Test results: ChEMBL document CHEMBL2146478, “Discovery of potent inhibitors of receptor protein tyrosine phosphatase sigma through the structure-based virtual screening” (Bioorg Med Chem Lett, 2012)
# Legend:
# [1] = molecular target: T1, Dual specificity protein phosphatase 4 (Homo sapiens, UniProt Q13115); test: Inhibition of MKP2
# T1 sequence (Q13115 whole entry): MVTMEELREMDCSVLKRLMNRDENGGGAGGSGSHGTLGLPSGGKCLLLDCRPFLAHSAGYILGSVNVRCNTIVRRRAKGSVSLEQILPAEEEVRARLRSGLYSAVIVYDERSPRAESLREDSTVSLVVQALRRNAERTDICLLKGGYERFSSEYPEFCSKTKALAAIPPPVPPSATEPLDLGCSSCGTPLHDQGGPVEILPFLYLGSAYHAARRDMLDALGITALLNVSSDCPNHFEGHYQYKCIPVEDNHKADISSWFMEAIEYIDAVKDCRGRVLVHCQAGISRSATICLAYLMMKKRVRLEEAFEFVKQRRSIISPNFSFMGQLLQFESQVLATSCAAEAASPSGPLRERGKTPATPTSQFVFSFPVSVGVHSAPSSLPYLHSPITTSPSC
# [2] = molecular target: Protein tyrosine phosphatase type IVA 3 (Homo sapiens, UniProt O75365); test: Inhibition of PRL3
# [3] = molecular target: T2, Protein tyrosine phosphatase type IVA 1 (Homo sapiens, UniProt Q93096); test: Inhibition of PRL1
# T2 sequence (Q93096 whole entry): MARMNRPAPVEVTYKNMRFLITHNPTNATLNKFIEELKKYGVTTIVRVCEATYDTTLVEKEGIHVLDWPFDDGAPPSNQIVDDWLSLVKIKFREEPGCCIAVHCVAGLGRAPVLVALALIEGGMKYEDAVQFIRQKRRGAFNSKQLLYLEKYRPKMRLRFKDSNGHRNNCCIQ
# PTPsigma-(Brain) [4] = molecular target: T3, PTPsigma-(Brain) (Homo sapiens, UniProt Q9UM81); test: Inhibition of His-tagged PTPsigma catalytic domain amino acid 1369 to 1948 using DiFMUP as substrate after 20 mins by spectrofluorometric analysis
# Target sequence in this assay (Q9UM81 whole entry, the tested form may be a part): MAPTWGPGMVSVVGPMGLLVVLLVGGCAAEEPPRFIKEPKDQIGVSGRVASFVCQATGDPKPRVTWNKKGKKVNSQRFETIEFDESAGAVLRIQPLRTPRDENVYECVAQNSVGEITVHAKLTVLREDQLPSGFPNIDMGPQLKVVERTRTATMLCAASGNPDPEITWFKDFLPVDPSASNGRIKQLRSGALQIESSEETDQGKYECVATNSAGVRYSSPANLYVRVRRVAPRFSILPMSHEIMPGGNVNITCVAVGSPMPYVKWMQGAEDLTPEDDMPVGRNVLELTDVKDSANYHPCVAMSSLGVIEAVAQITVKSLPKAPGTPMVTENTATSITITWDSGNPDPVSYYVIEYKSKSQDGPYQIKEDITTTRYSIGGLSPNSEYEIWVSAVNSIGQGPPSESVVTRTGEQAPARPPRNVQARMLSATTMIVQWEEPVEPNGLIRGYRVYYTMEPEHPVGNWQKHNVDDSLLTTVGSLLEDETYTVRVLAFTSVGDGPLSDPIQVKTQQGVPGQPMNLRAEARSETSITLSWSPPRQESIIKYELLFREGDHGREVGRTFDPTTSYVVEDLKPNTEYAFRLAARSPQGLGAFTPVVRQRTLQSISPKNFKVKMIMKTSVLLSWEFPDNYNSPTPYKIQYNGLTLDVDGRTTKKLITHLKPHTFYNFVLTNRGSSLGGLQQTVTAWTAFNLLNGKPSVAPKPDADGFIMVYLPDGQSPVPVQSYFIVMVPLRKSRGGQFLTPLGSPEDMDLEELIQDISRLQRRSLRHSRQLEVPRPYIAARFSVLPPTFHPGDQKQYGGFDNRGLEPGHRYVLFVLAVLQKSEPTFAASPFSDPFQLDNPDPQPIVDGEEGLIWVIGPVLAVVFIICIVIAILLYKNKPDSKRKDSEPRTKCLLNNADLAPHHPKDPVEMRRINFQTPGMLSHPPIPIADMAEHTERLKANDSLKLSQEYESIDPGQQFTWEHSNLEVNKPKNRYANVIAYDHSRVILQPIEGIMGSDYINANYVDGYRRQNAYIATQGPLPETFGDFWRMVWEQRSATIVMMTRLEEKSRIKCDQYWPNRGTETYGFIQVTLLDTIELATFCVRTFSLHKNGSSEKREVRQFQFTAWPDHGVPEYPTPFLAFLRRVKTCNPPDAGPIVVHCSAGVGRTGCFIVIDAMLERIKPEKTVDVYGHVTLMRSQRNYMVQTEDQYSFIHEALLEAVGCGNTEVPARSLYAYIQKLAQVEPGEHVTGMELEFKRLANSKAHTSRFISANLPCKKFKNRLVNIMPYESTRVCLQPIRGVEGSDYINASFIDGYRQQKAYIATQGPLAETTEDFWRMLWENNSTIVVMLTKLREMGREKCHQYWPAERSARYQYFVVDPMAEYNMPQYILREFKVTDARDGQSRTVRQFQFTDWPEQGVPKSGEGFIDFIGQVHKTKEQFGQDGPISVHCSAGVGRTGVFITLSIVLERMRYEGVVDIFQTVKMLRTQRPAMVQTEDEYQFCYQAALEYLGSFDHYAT
# PTPsigma-(Brain) [5] = molecular target: T3, PTPsigma-(Brain); test: Inhibition of His-tagged PTPsigma catalytic domain amino acid 1369 to 1948 using DiFMUP as substrate at 2 uM after 20 mins by spectrofluorometric analysis
# Target sequence in this assay (Q9UM81 as listed by the source): as the sequence (Q9UM81 whole entry, the tested form may be a part) above
# Chain of Protein tyrosine phosphatase type IVA 3 (O75365 whole entry): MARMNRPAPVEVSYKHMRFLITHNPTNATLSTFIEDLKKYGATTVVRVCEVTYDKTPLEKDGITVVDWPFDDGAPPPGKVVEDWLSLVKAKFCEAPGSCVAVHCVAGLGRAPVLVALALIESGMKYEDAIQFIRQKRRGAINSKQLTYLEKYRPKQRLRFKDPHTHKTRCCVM
IC50 [1] [µM],IC50 [2] [µM],IC50 [3] [µM],IC50 (PTPsigma-(Brain) [4]) [µM],inhibition (PTPsigma-(Brain) [5]) [%],SMILES
> 100,33.2,39.8,1.2,> 50,N=C1/C(=C\c2ccc(O)c(O)c2)C(=O)N=C2SC(c3ccc(O)cc3)=NN12
> 100,> 100,> 100,0.2,> 50,O=C1NC(=O)/C(=C\c2cccn2-c2ccc(C(=O)O)cc2)N1
> 100,11,14,0.9,> 50,O=c1/c(=C/c2ccc(O)c(O)c2)sc2nc3ccccc3n12
55.4,> 100,> 100,0.7,> 50,CC1=CC2=NC(=O)/C(=C/c3ccc(O)c(O)c3)C(=N)N2O1
> 100,57,> 100,1.3,> 50,O=C(CSc1nnc(-c2ccco2)c(-c2ccco2)n1)Nc1ccccc1[N+](=O)[O-]
21,27.6,37.2,0.6,> 50,O=C1NC(=S)S/C1=C\c1cn(-c2ccccc2)nc1-c1cccc(OCc2ccccc2Cl)c1
2.29,> 100,21,0.1,> 50,c1ccc2nc(-c3nnc4sc(-c5cnccn5)nn34)ccc2c1
